# According to ChEMBL document CHEMBL1147886, “Synthesis and pharmacological evaluation of novel conformationally constrained homologues of glutamic acid” (Eur J Med Chem, 2007):
# Experiments:
# Format in all cases: cell membranes
# Glutamate NMDA receptor = experiment: Displacement of [3H]CGP-39653 from NMDA receptor in rat cortical membrane
# [1] = Displacement of [3H]AMPA from AMPA receptor in rat cortical membrane
# [2] = Displacement of [3H]KA from KA receptor in rat cortical membrane
Structure (SMILES),Ki (Glutamate NMDA receptor) [µM],IC50 [1] [µM],IC50 [2] [µM]
O=C(O)[C@@H]1C[C@@]2(CN1)CC(O)=NO2,> 100,> 100,> 100
O=C(O)[C@H]1C[C@]2(CN1)CC(O)=NO2,> 100,> 100,> 100
O=C(O)C1=NO[C@]2(CN[C@H](C(=O)O)C2)C1,> 100,> 100,> 100
O=C(O)C1=NO[C@]2(CN[C@@H](C(=O)O)C2)C1,> 100,> 100,> 100
O=C(O)[C@@H]1C[C@]2(CN1)CC(O)=NO2,> 100,> 100,> 100
O=C(O)[C@H]1C[C@@]2(CN1)CC(O)=NO2,> 100,> 100,> 100
O=C(O)C1=NO[C@@]2(CN[C@H](C(=O)O)C2)C1,> 100,> 100,> 100
O=C(O)C1=NO[C@@]2(CN[C@@H](C(=O)O)C2)C1,> 100,> 100,> 100
N[C@@H](CCCP(=O)(O)O)C(=O)O,,> 100,> 100
N[C@H](CCCP(=O)(O)O)C(=O)O,,> 100,> 100
N[C@H](C[C@H]1CC(C(=O)O)=NO1)C(=O)O (racemic),,> 100,> 100
N[C@]1(C(=O)O)C[C@H]1[C@H]1CC(C(=O)O)=NO1 (racemic),> 100,> 100,> 100
N[C@]1(C(=O)O)C[C@H]1[C@@H]1CC(C(=O)O)=NO1 (racemic),34,> 100,> 100
N[C@]1(C(=O)O)C[C@H]1[C@H]1CC(O)=NO1 (racemic),> 100,> 100,> 100
N[C@H](C[C@@H]1CC(C(=O)O)=NO1)C(=O)O (racemic),,> 100,> 100
N[C@]1(C(=O)O)C[C@H]1[C@@H]1CC(O)=NO1 (racemic),13,> 100,> 100
